Measurements reported in patent US20150335678A1, “METHOD OF ACTIVATING STEM CELLS IN AN ANIMAL AND THE USE OF CHLORINE DIOXIDE FOR PREPARING MEDICINES FOR ACTIVATING STEM CELLS IN AN ANIMAL” (priority 2012, published 2015).

Legend:
[1] = test system: androgenetic alopecia (hair-loss patients); assay: Androgenetic alopecia patients, solution smeared on alopecia area (Example 1); conditions: for increased ratio of hair density vs before administration, Region 1 (center of crown) / increased ratio of hair density vs before administration, Region 2 (middle of crown and forehead) / increased ratio of hair density vs before administration, Region 3 (on the forehead) / increased ratio of hair density vs before administration, Region 4 (both sides of forehead): 5.1 cm2 circle
Method: Drug preparation: The first solution was a mixed solution made of sodium chlorite with the concentration of 7.47% and sodium chloride with the concentration of 1.59% with deionized water; the second solution was made of citric acid with the concentration of 16.7% with deionized water.
Dosage and administration: Same volume of solutions were taken out from different vessels with different volumes and put into the suitable glass or plastic cups prepared. Allow the solution to mix for 3-5 minutes and then filter the solution with 0.22 μm filter membrane of double-deck. The alopecia area was smeared with the solution by swab, waiting for 1-2 hours before cleaning the head, once a day. The medicine was taken according to the course of treatment. The first course of treatment was 15-25 days, the second course of treatment began after 2-5 months of drug withdrawal. The administration days were 10-15 days from the second course of treatment, and the next course of treatment began after 2-5 months of drug withdrawal.
The subjects consisted of 42 male hair-loss patients and one patient (22-68 years old.) They were willing to use the drug (hereinafter referred to as administration). See Table 1 for specific information.
To select four circular regions (5.1 cm^2) with diameter of 2.54 cm in the following regions: the center of crown (in front of the whirl on the head, region 1), the middle of crown and forehead (region2), on the forehead (region 3), both sides of forehead (region 4), and calculate the amount of hair through digital photographs respectively on the 10th day (t1), the first month (t2), second month (t3) after administration of the first course of treatment, and the second month (t4) after administration of the second course of treatment, as well as the second month (t5) after administration of the third course of treatment. Then the increased ratios of hair density in different regions were worked out by comparing the amount of hair before administration. (See Table 2)

[2] = test system: chronic and allergic rhinitis; assay: Chronic and allergic rhinitis patients vs ephedrine nose drops (Example 9); type: in vivo, human
Source text: The subjects consisted of 30 patients with chronic and allergic rhinitis, and half of them were randomly assigned to treatment group and control group.
The first solution was a mixed solution made of sodium chlorite with the concentration of 7.47% and sodium chloride with the concentration of 1.59% with deionized water; the second solution was made of citric acid with the concentration of 16.7% with deionized water. The solution comprising chlorine dioxide was made by mixing up the two solutions above. To make 50 ml solution for each patient each time and put it into a bottle and stores it in the refrigerator. 2-5 ml of solution for each patient each time was taken out and put into a beaker. The patients would breathe aiming at the cup-mouth for one to two minutes, and then the solution was diluted five to hundred times with normal saline before being put into nasal spray. To spray on each side of nose for three to five times. It was conducted once a day for consecutive 5 to 10 days. Then the administration was stopped, reuse the administration method for recurrence. The course of treatment was three months. The administration for patients in control group: use the ephedrine nose drops three times a day with three drops on each side each time for consecutive seven days. Reuse the administration method for recurrence. The course of treatment was three months.
Evaluation of the effects: The effects can be divided into excellent, effective and ineffective according to symptoms and signs. 1) Excellent: subjective symptoms disappear and positive sign become normal. 2) Effective: subjective symptoms and positive sign decrease obviously. […] Total effective rate(%)=(No. of excellent cases+No. of effective cases)/total cases×100%. Recurrence rate of rhinitis after treatment means the recurrence rate six months after treatment of all the cases. Table 19 is about the treatment of rhinitis.

[3] = 2-6 days after administration, n=43, NaClO2 7.47% + citric acid 16.7% 1:1, topical once a day
[4] = 3-5 days after administration, n=43, NaClO2 7.47%/NaCl 1.59% + citric acid 16.7% mixed 1:1, smeared on alopecia area once a day
[5] = 15-25 days after administration, n=43, NaClO2 7.47% + citric acid 16.7% 1:1, topical once a day
[6] = T1: 10th day, first course, n=43, NaClO2 7.47% + citric acid 16.7% topical
[7] = T2: first month after administration of first course, n=43, NaClO2 7.47% + citric acid 16.7% topical
[8] = T3: second month after administration of first course, n=43, NaClO2 7.47% + citric acid 16.7% topical
[9] = T4: second month after administration of second course, n=43, NaClO2 7.47% + citric acid 16.7% topical
[10] = T5: second month after administration of third course, n=43, NaClO2 7.47% + citric acid 16.7% topical
[11] = inventor's observation, chlorine dioxide solution applied every day
[12] = medicine stopped for 2-5 months after a course of treatment, n=43, NaClO2 7.47% + citric acid 16.7% 1:1, topical once a day
[13] = 30 cases per group, three-month course

SMILES: [O][Cl+][O-] [chlorine dioxide solution, chlorine dioxide]
- Effective rate: hair in the affected area fell off quickly [1, 3]: 100%
- No. effective patients: hair in the affected area fell off quickly [1, 3]: 43
- Effective rate: beard like new hair regrew, seen by naked eyes [1, 4]: 98%
- No. effective patients: beard like new hair regrew, seen by naked eyes [1, 4]: 42
- Effective rate: new hair grew persistently [1, 5]: 93%
- No. effective patients: new hair grew persistently [1, 5]: 40
- increased ratio of hair density vs before administration, Region 1 (center of crown) ([1]; T1: 10th day, first course, digital photographs, n=43, NaClO2 7.47% + citric acid 16.7% topical once a day): 123%
- increased ratio of hair density vs before administration, Region 2 (middle of crown and forehead) [1, 6]: 117%
- increased ratio of hair density vs before administration, Region 3 (on the forehead) [1, 6]: 133%
- increased ratio of hair density vs before administration, Region 4 (both sides of forehead) [1, 6]: 102%
- increased ratio of hair density vs before administration, Region 1 (center of crown) [1, 7]: 137%
- increased ratio of hair density vs before administration, Region 2 (middle of crown and forehead) [1, 7]: 129%
- increased ratio of hair density vs before administration, Region 3 (on the forehead) [1, 7]: 134%
- increased ratio of hair density vs before administration, Region 4 (both sides of forehead) [1, 7]: 157%
- increased ratio of hair density vs before administration, Region 1 (center of crown) [1, 8]: 154%
- increased ratio of hair density vs before administration, Region 2 (middle of crown and forehead) [1, 8]: 142%
- increased ratio of hair density vs before administration, Region 3 (on the forehead) [1, 8]: 153%
- increased ratio of hair density vs before administration, Region 4 (both sides of forehead) [1, 8]: 163%
- increased ratio of hair density vs before administration, Region 1 (center of crown) [1, 9]: 196%
- increased ratio of hair density vs before administration, Region 2 (middle of crown and forehead) [1, 9]: 185%
- increased ratio of hair density vs before administration, Region 3 (on the forehead) [1, 9]: 201%
- increased ratio of hair density vs before administration, Region 4 (both sides of forehead) [1, 9]: 260%
- increased ratio of hair density vs before administration, Region 1 (center of crown) [1, 10]: 354%
- increased ratio of hair density vs before administration, Region 2 (middle of crown and forehead) [1, 10]: 402%
- increased ratio of hair density vs before administration, Region 3 (on the forehead) [1, 10]: 396%
- increased ratio of hair density vs before administration, Region 4 (both sides of forehead) [1, 10]: 433%
- time until new hair could grow, most of patients ([1]; after administration, topical once a day): 2 to 3 days
- duration of stabbing pain after application ([1]; human, in vivo): 15 to 30 min
- time until new hair grows in alopecia area with hair [1, 11]: third to the fifth day
- time until new hair grows in alopecia area without hair [1, 11]: about 20 days
- Effective rate: hair recovered by one level, judged by naked eyes [1, 12]: 81%
- No. effective patients: hair recovered by one level, judged by naked eyes [1, 12]: 35
- skin reaction in the administered area ([1]; when administered for three days, red spot like solidified bleeding wound): micro wound was produced
- Effective (No. of cases): symptoms and signs decrease obviously [2, 13]: 3
- Effective rate = (excellent + effective)/total cases [2, 13]: 97%
- Ineffective (No. of cases) [2, 13]: 1
- Excellent (No. of cases): symptoms disappear, signs normal ([2]; 30 cases per group, three-month course, test: NaClO2 7.47% + citric acid 16.7%, breathed 1-2 min then nasal spray diluted 5-100 times, once a day 5 to 10 days, control three times a day seven days): 26
- No. of Recurrences ([2]; six months after treatment): 3
- Recurrence rate ([2]; six months after treatment): 10%
